Reference: patent US20080064736A1, “Substituted 2-Pyrrolidone Derivatives as Fungicides and Insecticides” (Bayer Cropscience AG, priority 2004, published 2008)

Tests used:
[1] = tested on: Podosphaera leucotricha; assay: Podosphaera test (apple)/protective; assay type: in vivo; conditions: protective, application rate 100 g/ha, evaluated 7 days after inoculation
Method: Podosphaera Test (Apple)/Protective
(§1) To produce a suitable preparation of active compound, 1 part by weight of active compound is mixed with the stated amounts of solvent and emulsifier, and the concentrate is diluted with water to the desired concentration.
To test for protective activity, young plants are sprayed with the preparation of active compound at the stated rate of application. After the spray coating has dried on, the plants are inoculated with an aqueous spore suspension of the causal agent of apple mildew (Podosphaera leucotricha). The plants are then placed in a greenhouse at approximately 23° C. and a relative atmospheric humidity of approximately 70%.
The test is evaluated 7 days after the inoculation. 0% means an efficacy which corresponds to that of the control, while an efficacy of 100% means that no disease is observed.

[2] = tested on: Venturia inaequalis; assay: Venturia test (apples)/protective; assay type: in vivo; conditions: protective, application rate 100 g/ha, evaluated 10 days after inoculation
Method: Venturia Test (Apples)/Protective
as §1
To test for protective activity, young plants are sprayed with the preparation of active compound at the stated rate of application. After the spray coating has dried on, the plants are inoculated with an aqueous conidia suspension of the causal agent of apple scab (Venturia inaequalis) and then remain for 1 day in an incubation cabinet at approximately 20° C. and a relative atmospheric humidity of 100%.
The plants are then placed in a greenhouse at approximately 21° C. and a relative atmospheric humidity of approximately 90%.
The test is evaluated 10 days after the inoculation. 0% means an efficacy which corresponds to that of the control, while an efficacy of 100% means that no disease is observed.

[3] = tested on: Botrytis cinerea; assay: Botrytis test (beans)/protective; assay type: in vivo; conditions: protective, application rate 500 g/ha, lesion size 2 days after inoculation
Method: Botrytis Test (Beans)/Protective
as §1
To test for protective activity, young plants are sprayed with the preparation of active compound. After the spray coating has dried on, 2 small pieces of agar covered with growth of Botrytis cinerea are placed on each leaf. The inoculated plants are placed in a darkened chamber at 20° C. and a relative atmospheric humidity of 100%.
2 days after the inoculation, the size of the lesions on the leaves is evaluated. 0% means an efficacy which corresponds to that of the control, while an efficacy of 100% means that no disease is observed.

[4] = tested on: sphaerotheca fuliginea; assay: Sphaerotheca-test (cucumber); assay type: in vivo; conditions: protective, application rate 500 ppm, evaluated 7 days after inoculation
[5] = tested on: Spodoptera frugiperda; assay: Spodoptera frugiperda-test (sensible strain); assay type: in vivo; conditions: cabbage leaves dipped, larvae, after six days
Method: Spodoptera frugiperda-Test (Sensible Strain)
Pieces of cabbage leaves (Brassica oleracea) are treated by being dipped into the preparation of the active compound of the desired concentration and are infested with larvae of the fall army worm (Spodoptera frugiperda) as long as the leaves are still moist.
After six days the mortality in % is determined. 100% means that all the caterpillars have been killed; 0% means that none of the caterpillars have been killed.

Row | SMILES | chromatographic logP | efficacy [4] [%] | also measured
1 | CCCCCC[C@H]1C(=O)N[C@@]2([C@@H](O)C(C)C)C(=O)O[C@@]12C [(1R,4R,5S)-4-hexyl-1-[(1S)-1-hydroxy-2-methylpropyl]-5-methyl-6-oxa-2-azabicyclo[3.2.0]heptane-3,7-dione] | 2.87 |  | 
2 | CCCCCC[C@@H]1C(=O)N[C@@]2([C@@H](O)C(C)C)C(=O)O[C@@]12C [(1R,4S,5S)-4-hexyl-1-[(1S)-1-hydroxy-2-methylpropyl]-5-methyl-6-oxa-2-azabicyclo[3.2.0]heptane-3,7-dione] | 2.79 |  | 
3 | CCCCCC[C@H]1C(=O)N[C@@]2([C@@H](O)[C@@H]3C=CCCC3)C(=O)O[C@@]12C [Example 1, (1R,4R,5S)-1-[(S)-(1S)-2-cyclohexen-1-yl(hydroxy)methyl]-4-hexyl-5-methyl-6-oxa-2-azabicyclo[3.2.0]heptane-3,7-dione] |  | 70 | efficacy [1]: 100%; efficacy [2]: 100%; efficacy [3]: more than 90%; efficacy (mortality) [5]: 100%
4 | CCCCCC[C@H]1C(=O)N[C@@]2([C@@H](O)C(C)C)C(=O)O[C@@]12C [Example 8, (1R,4R,5S)-4-hexyl-1-[(1S)-1-hydroxy-2-methylpropyl]-5-methyl-6-oxa-2-azabicyclo[3.2.0]heptane-3,7-dione] |  | 70 | 
